Experimental data: US20160137714A1 (Thrasos Innovation, Inc., priority 2014, published 2016)
Values belong to the compound of their own block, whether it stands above or below them. Positions of bridges follow the written chain, without caps; N, C: chain ends. Non-standard residues stand in square brackets, D forms with d. Residues, ends and D or L forms follow the SMILES beside them.

Legend:
[1] = In vitro plasma stability in heparin-treated fresh rat plasma at 37° C.; type: in vitro ADME; details: for AUC0-240: time 0 to 240 minutes; for remaining at 1 min, 1 μM / remaining at 5 min, 1 μM / remaining at 0.25 h, 1 μM / remaining at 0.5 h, 1 μM / remaining at 1 h, 1 μM / remaining at 2 h, 1 μM: heparin-treated fresh rat plasma
Procedure: GPR-397 and GPR-405 were independently added to fresh rat plasma at a final in-vial concentration of 1 μM. The peptides were incubated in a water bath at 37° C. over a time course that included the following points (in minutes): 0, 1, 5, 15, 30, 60, 120, 240, and 1440. After the incubation time was completed, a 50 μL aliquot of plasma was removed and proteins were precipitated using a solution containing internal standard (THR-123 at 150 ng/mL) in methanol with 0.5% acetic acid (v/v). The samples were centrifuged at 13,000 RPM for 5 minutes, and a 100 μL aliquot of supernatant was removed and transferred to a 96-well plate containing 100 μL of reconstitution solution (Water/MeOH/Acetic Acid/TFA, 60/40/0.2/0.05, v/v/v/v). A calibration curve and quality control (QC) samples were prepared in parallel in the same manner as the incubation samples. The calibration range for this assay was from 0.02 to 2.0 μM in rat plasma. The extracted calibrants, QC, and incubation samples were injected onto an AB SCIEX API 2000 LC-MS/MS system. Chromatographic separation was performed using a reversed-phase C18 HPLC column (Ace-3 C18, 30×2.1 mm, 3 μm). The solvent system consisted of Milli-Q water, acetonitrile and formic acid. Analyte and internal standard were detected using the multiple reaction monitoring (MRM) scan mode. Calibration curves were generated by using a weighted (1/concentration) quadratic regression analysis of the peak area ratios (analyte/internal standard) versus the nominal concentration of the calibration standards. The concentration of the analyte in the incubation samples was determined by back-calculating the peak area ratios obtained using the quadratic regression.
FIGS. 9-12 compare the in vitro plasma stability results for GPR-405 and THR-123 incubated in fresh rat plasma treated with heparin. FIG. 9 provides a scatter plot showing the first 240 minutes of the time-course and disappearance of the THR peptides in heparin-treated fresh rat plasma at 37° C. […] FIG. 12 compares the calculated half-life of THR-123 and GPR-405.

[2] = THR-123 i.v. in rodents: half-life and metabolites in plasma and kidney tissue; type: in vivo, rat
Description: The main metabolite VII results from a proteolytic cleavage between positions 14 and 15 (VII in FIG. 2). The structure of each metabolite was confirmed by synthesis and analytical characterization.

[3] = fresh rat plasma 37° C., 1 μM peptide, 0 min
[4] = fresh rat plasma 37° C., 1 μM peptide, 1 min
[5] = fresh rat plasma 37° C., 1 μM peptide, 5 min
[6] = fresh rat plasma 37° C., 1 μM peptide, 15 min
[7] = fresh rat plasma 37° C., 1 μM peptide, 30 min
[8] = fresh rat plasma 37° C., 1 μM peptide, 60 min
[9] = fresh rat plasma 37° C., 1 μM peptide, 120 min
[10] = fresh rat plasma 37° C., 1 μM peptide, 240 min
[11] = fresh rat plasma 37° C., 1 μM peptide, 240 min (4 hours), read-out: TI remaining
[12] = fresh rat plasma 37° C., 1 μM peptide, 1440 min
[13] = fresh rat plasma 37° C., 1 μM peptide
[14] = fresh rat plasma treated with heparin in vitro at 37° C.
[15] = fresh rat plasma 37° C., 1 μM peptide, 1 min, read-out: TI remaining
[16] = fresh rat plasma 37° C., 1 μM peptide, 5 min, read-out: TI remaining
[17] = fresh rat plasma 37° C., 1 μM peptide, 15 min, read-out: TI remaining
[18] = fresh rat plasma 37° C., 1 μM peptide, 30 min, read-out: TI remaining
[19] = fresh rat plasma 37° C., 1 μM peptide, 60 min, read-out: TI remaining
[20] = fresh rat plasma 37° C., 1 μM peptide, 120 min, read-out: TI remaining

Mean plasma concentration [1, 3]: 1095 nM
Sample 1 plasma concentration [1, 3]: 1.100 µM
Sample 2 plasma concentration [1, 3]: 1.090 µM
TI remaining [1, 3]: 100%
Mean plasma concentration [1, 4]: 1065 nM
Sample 1 plasma concentration [1, 4]: 1.080 µM
Sample 2 plasma concentration [1, 4]: 1.050 µM
Mean plasma concentration [1, 5]: 1105 nM
Sample 1 plasma concentration [1, 5]: 1.090 µM
Sample 2 plasma concentration [1, 5]: 1.120 µM
Mean plasma concentration [1, 6]: 1065 nM
Sample 1 plasma concentration [1, 6]: 1.080 µM
Sample 2 plasma concentration [1, 6]: 1.050 µM
TI remaining [1, 6]: 97.3%
Mean plasma concentration [1, 7]: 1002 nM
Sample 1 plasma concentration [1, 7]: 0.963 µM
Sample 2 plasma concentration [1, 7]: 1.040 µM
Mean plasma concentration [1, 8]: 934 nM
Sample 1 plasma concentration [1, 8]: 0.895 µM
Sample 2 plasma concentration [1, 8]: 0.973 µM
Mean plasma concentration [1, 9]: 826 nM
Sample 1 plasma concentration [1, 9]: 0.836 µM
Sample 2 plasma concentration [1, 9]: 0.815 µM
Mean plasma concentration [1, 10]: 538 nM
Sample 1 plasma concentration [1, 10]: 0.534 µM
Sample 2 plasma concentration [1, 10]: 0.541 µM
TI remaining ([1]; fresh rat plasma 37° C., 1 μM peptide, 240 min (4 hours)): 49.1%
remaining at 4 h [1, 11]: 49.1%
Mean plasma concentration [1, 12]: 75 nM
Sample 1 plasma concentration [1, 12]: 0.081 µM
Sample 2 plasma concentration [1, 12]: 0.068 µM
TI remaining ([1]; fresh rat plasma 37° C., 1 μM peptide, 1440 min (24 hours)): 6.8%
remaining at 24 h ([1]; fresh rat plasma 37° C., 1 μM peptide, 1440 min (24 hours), read-out: TI remaining): 6.8%
AUC0-240 [1, 13]: 195.4 μM* min/ml
measured half-life relative to that of THR-123 [1, 14]: about 100 times
stability compared with THR-123 [1, 14]: dramatically more stable than THR-123
remaining at 1 min, 1 μM [1, 15]: 97.3%
remaining at 5 min, 1 μM [1, 16]: 101%
remaining at 0.25 h, 1 μM [1, 17]: 97.3%
remaining at 0.5 h, 1 μM [1, 18]: 91.5%
remaining at 1 h, 1 μM [1, 19]: 85.3%
remaining at 2 h, 1 μM [1, 20]: 75.4%
Structure (SMILES): CC(C)C[C@@H]1NC(=O)[C@H](C(C)C)NC(=O)[C@H](CCC(N)=O)NC(=O)[C@H](CO)NC(=O)[C@H](CO)NC(=O)[C@H](CC(N)=O)NC(=O)[C@H](Cc2ccccc2)NC(=O)[C@H](Cc2ccc(O)cc2)NC(=O)[C@H](Cc2ccc(O)cc2)NC(=O)[C@@H](N)CSSC[C@@H](C(=O)N[C@@H](CCCCN)C(=O)N[C@@H](CCCNC(=N)N)C(=O)N[C@H](Cc2ccc(O)cc2)C(=O)N[C@@H](CCCNC(=N)N)C(=O)N[C@@H](CO)C(=O)O)NC1=O [GPR-405, Cys-Tyr-Tyr-Phe-Asn-Ser-Ser-Gln-Val-Leu-Cys-Lys-Arg-(D)Tyr-Arg-Ser] (H-CYYFNSSQVLCKR[dY]RS-OH; disulfide 1-11)

half-life in plasma and kidney tissue ([2]; administered intravenously to rodents, FIG. 1): short half-life
metabolites identified in the kidney ([2]; rat kidney tissue, ten minutes post i.v. administration, FIG. 2): metabolites VI, VII, VIII and IX
Mean plasma concentration [1, 3]: 905 nM
Sample 1 plasma concentration [1, 3]: 0.970 µM
Sample 2 plasma concentration [1, 3]: 0.840 µM
TI remaining [1, 3]: 100%
Mean plasma concentration [1, 4]: 855 nM
Sample 1 plasma concentration [1, 4]: 0.850 µM
Sample 2 plasma concentration [1, 4]: 0.860 µM
Mean plasma concentration [1, 5]: 295 nM
Sample 1 plasma concentration [1, 5]: 0.300 µM
Sample 2 plasma concentration [1, 5]: 0.290 µM
Mean plasma concentration [1, 6]: 55 nM
Sample 1 plasma concentration [1, 6]: 0.060 µM
Sample 2 plasma concentration [1, 6]: 0.050 µM
Mean plasma concentration [1, 7]: 30 nM
Sample 1 plasma concentration [1, 7]: 0.060 µM
Sample 2 plasma concentration [1, 7]: 0.030 µM
Mean plasma concentration [1, 8]: 25 nM
Sample 1 plasma concentration [1, 8]: 0.026 µM
Sample 2 plasma concentration [1, 8]: 0.024 µM
Mean plasma concentration [1, 9]: 18 nM
Sample 1 plasma concentration [1, 9]: 0.015 µM
Sample 2 plasma concentration [1, 9]: 0.020 µM
Mean plasma concentration [1, 10]: 11 nM
Sample 1 plasma concentration [1, 10]: 0.010 µM
Sample 2 plasma concentration [1, 10]: 0.011 µM
remaining at 4 h [1, 11]: 1.2%
AUC0-240 [1, 13]: 15.65 μM* min/ml
remaining at 1 min, 1 μM [1, 15]: 94.4%
remaining at 5 min, 1 μM [1, 16]: 32.4%
remaining at 0.25 h, 1 μM [1, 17]: 6.4%
remaining at 0.5 h, 1 μM [1, 18]: 3.3%
remaining at 1 h, 1 μM [1, 19]: 2.8%
remaining at 2 h, 1 μM [1, 20]: 1.9%
Structure (SMILES): CC(C)C[C@@H]1NC(=O)[C@H](C(C)C)NC(=O)[C@H](CC(N)=O)NC(=O)[C@H](CO)NC(=O)[C@H](CO)NC(=O)[C@H](CC(=O)O)NC(=O)[C@H](CC(=O)O)NC(=O)[C@H](Cc2ccccc2)NC(=O)[C@H](Cc2ccc(O)cc2)NC(=O)[C@@H](N)CSSC[C@@H](C(=O)N[C@@H](CCCCN)C(=O)N[C@@H](CCCCN)C(=O)N[C@@H](Cc2ccc(O)cc2)C(=O)N[C@@H](CCCNC(=N)N)C(=O)N[C@@H](CO)C(=O)O)NC1=O [THR-123, Cys-Tyr-Phe-Asp-Asp-Ser-Ser-Asn-Val-Leu-Cys-Lys-Lys-Tyr-Arg-Ser] (H-CYFDDSSNVLCKKYRS-OH; disulfide 1-11)
